The text below walks through data of patent publication US20250163038A1, “CBL-B MODULATORS AND USES THEREOF” (Nimbus Clio, Inc., priority 2021, published 2025).

Like-named read-outs stand apart in the source and are kept apart here. Some results are limits rather than exact numbers.

In assay [1] the target is Recombinant human Cbl-b (aa 36-427) (Homo sapiens, UniProt Q13191). In words: Cbl-b Biochemical Assay (TR-FRET). To be noted: read-out: TR-FRET hCbl-b IC50.
Assay [2] concerns Jurkat (clone E6-1) cells with NFAT luciferase reporter. In words: Jurkat reporter assay (NFAT Luciferase). It counts as cell-based. The following applies: Homo sapiens. (Reporter assays use an easily measured gene product as a stand-in for the process of interest.)
The target of assay [3] is T1, Recombinant human c-Cbl (aa 47-435) (Homo sapiens, UniProt P22681).
T1 sequence (P22681 47-435): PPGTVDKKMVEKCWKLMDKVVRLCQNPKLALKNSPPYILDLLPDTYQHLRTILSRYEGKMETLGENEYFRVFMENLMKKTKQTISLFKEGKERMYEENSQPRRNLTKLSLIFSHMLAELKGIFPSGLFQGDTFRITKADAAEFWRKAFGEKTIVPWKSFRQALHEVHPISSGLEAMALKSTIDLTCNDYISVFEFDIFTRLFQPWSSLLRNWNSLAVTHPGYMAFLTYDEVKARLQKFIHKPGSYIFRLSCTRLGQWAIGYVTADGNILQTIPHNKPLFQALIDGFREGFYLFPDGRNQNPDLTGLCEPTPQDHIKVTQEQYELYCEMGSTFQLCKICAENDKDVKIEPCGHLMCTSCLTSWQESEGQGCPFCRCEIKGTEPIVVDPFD
In words: c-Cbl Biochemical Assay (TR-FRET). To be noted: hc-Cbl Biochemical Assay (TR-FRET); read-out: TR-FRET hcCbl IC50. For orientation: TR-FRET usually uses a lanthanide donor and a delayed reading to cut background.

[4] abbreviates: Jurkat NFAT luciferase reporter cells, anti-CD3 stimulation, 6 hr, read-out: Jurkat NFAT EC50.

Recombinant human Cbl-b (aa 36-427), sequence (Q13191 36-427): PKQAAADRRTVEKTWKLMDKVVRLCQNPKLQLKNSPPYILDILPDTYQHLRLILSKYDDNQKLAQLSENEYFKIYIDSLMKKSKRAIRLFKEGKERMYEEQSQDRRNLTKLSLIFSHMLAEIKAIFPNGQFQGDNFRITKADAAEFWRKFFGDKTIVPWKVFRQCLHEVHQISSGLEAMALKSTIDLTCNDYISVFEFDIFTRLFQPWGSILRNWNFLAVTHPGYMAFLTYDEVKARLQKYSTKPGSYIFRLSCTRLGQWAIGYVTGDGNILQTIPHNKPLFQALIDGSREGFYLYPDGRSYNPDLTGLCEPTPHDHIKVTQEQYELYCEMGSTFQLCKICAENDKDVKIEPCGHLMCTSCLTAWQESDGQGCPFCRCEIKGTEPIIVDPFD

What is called IC50 is the midpoint of a concentration-inhibition curve. As usually defined, the EC50 is the concentration giving half of the maximal effect. Regarding `CCNc1cc(-c2ccccc2-c2nncn2C)cc(-c2nc3cc(CN4CCC5(CC5)C4)cc(C(F)(F)F)c3[nH]2)n1` [AAG-4, 6-(6-{5-Azaspiro[2.4]heptan-5-ylmethyl}-4-(trifluoromethyl)-3H-1,3-benzodiazol-2-yl)-N-ethyl-4-[2-(4-methyl-1,2,4-triazol-3-yl)phenyl]pyridin-2-amine], the half-inhibitory concentration (IC50) in assay [1] is 200 to 1000 nM; in assay [3] it was 10000 to 50000 nM. Moreover, the EC50 in assay [2] (setting [4]) fell in the range of 1 to 10 µM.
Taken in the same sequence, the figures for `C[C@H]1CCCN(Cc2cc(C(F)(F)F)c3[nH]c(-c4cccc(-c5ccccc5-c5nncn5C)c4)nc3c2)C1` [AAI-5, 2-[2′-(4-Methyl-1,2,4-triazol-3-yl)-[1,1′-biphenyl]-3-yl]-6-{[(3S)-3-methylpiperidin-1-yl]methyl}-4-(trifluoromethyl)-3H-1,3-benzodiazole] were 200 to 1000 nM, 10000 to 50000 nM and 1 to 10 µM.
The corresponding values for `Cn1cnnc1-c1cc(F)ccc1-c1cccc(-c2nc3cc(CN4CCC5(CC5)C4)cc(C(F)(F)F)c3o2)c1` [AAL-5, 5-((5-Azaspiro[2.4]heptan-5-yl)methyl)-2-(4′-fluoro-2′-(4-methyl-4H-1,2,4-triazol-3-yl)-[1,1′-biphenyl]-3-yl)-7-(trifluoromethyl) benzo[d]oxazole] are below 200 nM, 1000 to 10000 nM and 1 to 10 µM.
Turning to `C[C@H]1CCCN(Cc2cc(C(F)(F)F)c3oc(-c4cc(-c5ccccc5-c5nncn5C)cc(C5CC5)n4)nc3c2)C1` [AAP-7, 2-{6-Cyclopropyl-4-[2-(4-methyl-1,2,4-triazol-3-yl)phenyl]pyridin-2-yl}-5-{[(3S)-3-methylpiperidin-1-yl]methyl}-7-(trifluoromethyl)-1,3-benzoxazole], the results for the IC50 in assay [1] and in assay [3] were below 200 nM and 1000 to 10000 nM, respectively. Also, in assay [2] (Jurkat, 6 h, read-out: Jurkat NFAT EC50 (μM)), the EC50 fell in the range of 0.2 to 1 µM.
`C[C@@H]1CCCN(Cc2cc(C(F)(F)F)c3oc(-c4cc(-c5ccccc5-c5nncn5C)cc(C5CC5)n4)nc3c2)C1` [AAQ-2, 2-{6-Cyclopropyl-4-[2-(4-methyl-1,2,4-triazol-3-yl)phenyl]pyridin-2-yl}-5-{[(3R)-3-methylpiperidin-1-yl]methyl}-7-(trifluoromethyl)-1,3-benzoxazole]: the values for the IC50 in assay [1] and in assay [3] were 200 to 1000 nM and 1000 to 10000 nM, respectively. In assay [2] (setting [4]), the EC50 was 1 to 10 µM.
As for `Cn1cnnc1-c1ccccc1-c1cc(-c2nc3cc(CN4CCC5(CC5)C4)cc(C(F)(F)F)c3o2)nc(C2CC2)c1` [AAR-2, 5-{5-Azaspiro[2.4]-heptan-5-ylmethyl}-2-{6-cyclopropyl-4-[2-(4-methyl-1,2,4-triazol-3-yl)-phenyl]-pyridin-2-yl}-7-(trifluoromethyl)-1,3-benzoxazole], the IC50 in assay [1] was below 200 nM; in assay [3], 1000 to 10000 nM. In addition, in assay [2] (setting [4]), the concentration for a half-maximal effect (EC50) was 1 to 10 µM.
With `Cn1cnnc1-c1ccccc1-c1cc(-c2nc3cc(CN4CCC5(CC5)C4)cc(C(F)(F)F)c3[nH]2)nc(C2CC2)c1` [AAS-2, 5-((5-Azaspiro[2.4]heptan-5-yl)methyl)-2-(6-cyclopropyl-4-(2-(4-methyl-4H-1,2,4-triazol-3-yl)phenyl)pyridin-2-yl)-7-(trifluoromethyl)-1H-benzo[d]imidazole], the IC50 in assay [1] is below 200 nM; in assay [3], 1000 to 10000 nM. Moreover, the EC50 in assay [2] (setting [4]) is 1 to 10 µM.
The corresponding values for `Cn1cnnc1-c1cc(C#N)ccc1-c1cccc(-c2nc3cc(CN[C@@H]4CCC[C@@H]4O)cc(C(F)(F)F)c3[nH]2)c1` [AAW-5, 3′-(5-((((1R,2S)-2-Hydroxycyclopentyl)amino)methyl)-7-(trifluoromethyl)-1H-benzo[d]imidazol-2-yl)-2-(4-methyl-4H-1,2,4-triazol-3-yl)-[1,1′-biphenyl]-4-carbonitrile] are below 200 nM, 1000 to 10000 nM and 0.2 to 1 µM.
With `C[C@H]1CCCN(Cc2cc(C(F)(F)F)c3[nH]c(-c4cccc([C@]5(c6nncn6C)C[C@@H](C)C5)c4)nc3c2)C1` [AAX-12, 6-{[(3S)-3-Methylpiperidin-1-yl]methyl}-2-{3-[(1r,3s)-3-methyl-1-(4-methyl-1,2,4-triazol-3-yl)cyclobutyl]phenyl}-4-(trifluoromethyl)-3H-1,3-benzodiazole], the 50% inhibitory concentration (IC50) in assay [1] is below 200 nM; in assay [3] it was 10000 to 50000 nM. Besides, the concentration giving a half-maximal response (EC50) in assay [2] (setting [4]) was 1 to 10 µM.
Consider `C[C@H]1CCCN(Cc2cc(C(F)(F)F)c3oc(-c4cccc([C@]5(c6nncn6C)C[C@@H](C)C5)c4)nc3c2)C1` [AAY-2, 5-{[(3S)-3-Methylpiperidin-1-yl]methyl}-2-{3-[(1r,3s)-3-methyl-1-(4-methyl-1,2,4-triazol-3-yl)cyclobutyl]phenyl}-7-(trifluoromethyl)-1,3-benzoxazole], for which the IC50 in assay [1] was below 200 nM; in assay [3] it was 1000 to 10000 nM. Besides, the EC50 in assay [2] (setting [4]) fell in the range of 1 to 10 µM.
The corresponding values for `C[C@H]1CCCN(Cc2cc(C(F)(F)F)c3[nH]c(-c4cc(-c5ccc(F)cc5-c5nncn5C)cc(C5CC5)n4)nc3c2)C1` [AAZ-10, (S)-2-(6-Cyclopropyl-4-(4-fluoro-2-(4-methyl-4H-1,2,4-triazol-3-yl)phenyl)pyridin-2-yl)-5-((3-methylpiperidin-1-yl)methyl)-7-(trifluoromethyl)-1H-benzo[d]imidazole] are below 200 nM, 1000 to 10000 nM and 0.2 to 1 µM.
As to `CO[C@H]1CCN(Cc2cc(C(F)(F)F)c3oc(-c4cccc(-c5ccc(F)cc5-c5nncn5C)c4)nc3c2)C1` [AB-2, (S)-2-(4′-Fluoro-2′-(4-methyl-4H-1,2,4-triazol-3-yl)-[1,1′-biphenyl]-3-yl)-5-((3-methoxypyrrolidin-1-yl)methyl)-7-(trifluoromethyl)benzo[d]oxazole], the figures for the IC50 in assay [1] and in assay [3] were below 200 nM and 1000 to 10000 nM, respectively. Further, in assay [2] (setting [4]), the EC50 lay in the range of 1 to 10 µM.
Taken in the same sequence, the figures for `Cn1cnnc1-c1cc(F)ccc1-c1cc(C(=O)Nc2cc(CN3CCC4(CC4)C3)cc(C(F)(F)F)c2N)nc(C2CC2)c1` [ABA-1, N-(5-((5-Azaspiro[2.4]heptan-5-yl)methyl)-2-amino-3-(trifluoromethyl)phenyl)-6-cyclopropyl-4-(4-fluoro-2-(4-methyl-4H-1,2,4-triazol-3-yl)phenyl)picolinamide] were below 200 nM, 1000 to 10000 nM and 0.2 to 1 µM.
The corresponding values for `Cn1cnnc1CC1(c2cccc(-c3nc4cc(CN5CCC6(CC6)C5)cc(C(F)(F)F)c4[nH]3)c2)COC1` [ABK-1, 5-((5-Azaspiro[2.4]heptan-5-yl)methyl)-2-(3-(3-((4-methyl-4H-1,2,4-triazol-3-yl)methyl)oxetan-3-yl)phenyl)-7-(trifluoromethyl)-1H-benzo[d]imidazole] are 200 to 1000 nM, 1000 to 10000 nM and 1 to 10 µM.
The corresponding values for `Cn1cnnc1-c1cc(F)ccc1-c1cccc(-c2nc3cc(CNCC4(O)COC4)cc(C(F)(F)F)c3o2)c1` [AC-2, 3-((((2-(4′-Fluoro-2′-(4-methyl-4H-1,2,4-triazol-3-yl)-[1,1′-biphenyl]-3-yl)-7-(trifluoromethyl)benzo[d]oxazol-5-yl)methyl)amino)methyl)oxetan-3-ol] are below 200 nM, 1000 to 10000 nM and 0.2 to 1 µM.
In the case of `Cn1cnnc1-c1ccccc1-c1cccc(-c2nc3cc(CN4CCC5(CC5)C4)cc(C(F)(F)F)c3[nH]2)c1` [ACF-1, 5-((5-Azaspiro[2.4]heptan-5-yl)methyl)-2-(2′-(4-methyl-4H-1,2,4-triazol-3-yl)-[1,1′-biphenyl]-3-yl)-7-(trifluoromethyl)-1H-benzo[d]imidazole], the IC50 in assay [1] fell in the range of 200 to 1000 nM; in assay [3], 10000 to 50000 nM. The EC50 in assay [2] (setting [4]) is 1 to 10 µM.
Turning to `CC(c1cc(C(F)(F)F)c2[nH]c(-c3cccc(C4(Cc5nncn5C)COC4)c3)nc2c1)N1CCC2(CC2)C1` (stereo not drawn) [ACK-3, 5-(1-(5-Azaspiro[2.4]heptan-5-yl)ethyl)-2-(3-(3-((4-methyl-4H-1,2,4-triazol-3-yl)methyl)oxetan-3-yl)phenyl)-7-(trifluoromethyl)-1H-benzo[d]imidazole], the IC50 in assay [1] lay in the range of 200 to 1000 nM; in assay [3], 10000 to 50000 nM. The EC50 in assay [2] (setting [4]) lay within 1 to 10 µM.
Taken in the same sequence, the figures for `C[C@@H](c1cc(C(F)(F)F)c2[nH]c(-c3cccc(C4(Cc5nncn5C)COC4)c3)nc2c1)N1CCC2(CC2)C1` [ACM-1, (S)-5-(1-(5-Azaspiro[2.4]heptan-5-yl)ethyl)-2-(3-(3-((4-methyl-4H-1,2,4-triazol-3-yl)methyl)oxetan-3-yl)phenyl)-7-(trifluoromethyl)-1H-benzo[d]imidazole] were 200 to 1000 nM, 10000 to 50000 nM and 1 to 10 µM.
Taken in the same sequence, the figures for `C[C@H](c1cc(C(F)(F)F)c2[nH]c(-c3cccc(C4(Cc5nncn5C)COC4)c3)nc2c1)N1CCC2(CC2)C1` [ACN-1, (R)-5-(1-(5-Azaspiro[2.4]heptan-5-yl)ethyl)-2-(3-(3-((4-methyl-4H-1,2,4-triazol-3-yl)methyl)oxetan-3-yl)phenyl)-7-(trifluoromethyl)-1H-benzo[d]imidazole] were 200 to 1000 nM, 200 to 1000 nM and 1 to 10 µM.
